Experimental data from US9133115B2 (ACHILLION PHARMACEUTICALS, INC., priority 2008, dated 2015).

Each compound was assayed on HCV replicon (assay: HCV replicon replication assay (NPT ELISA) in Huh-7 replicon-containing cells). Settings: Hepatitis C virus, 72 h; HCV replicon in Huh-7 cells, three days incubation; read-out: EC50.
Assay type: cell-based
How it was run: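 Huh-7 cells carrying a bicistronic HCV replicon (HCV-IRES-neo, EMCV-IRES-driven NS3–NS5B, 3′-NTR) were seeded at 6000-7500 cells/well, grown 24 h to 60-70% confluence, then treated with graded compound concentrations. Replication was read as NPT level by capture ELISA (rabbit anti-NPTII, Eu-N1 secondary); interferon alpha served as positive control.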

`C=C[C@@H]1C[C@]1(NC(=O)[C@@H]1C[C@@H](Oc2cc(-c3csc(NC(C)C)n3)nc3cc(OC)ccc23)CN1C(=O)[C@@H](CC(=O)N1CCCCC1)C(C)(C)C)C(=O)NS(=O)(=O)C1CC1` [Compound 96, (2S,4R)-1-((S)-2-tert-butyl-4-oxo-4-(piperidin-1-yl)butanoyl)-N-((1R,2S)-1-(cyclopropylsulfonyl-carbamoyl)-2-vinylcyclopropyl)-4-(2-(2-(isopropyl-amino)thiazol-4-yl)-7-methoxyquinolin-4-yloxy)pyrrolidine-2-carboxamide] and `C=C[C@@H]1C[C@]1(NC(=O)[C@@H]1C[C@@H](Oc2cc(-c3csc(NC(C)C)n3)nc3cc(OC)ccc23)CN1C(=O)[C@@H](CC(=O)N1CCOCC1)C(C)(C)C)C(=O)NS(=O)(=O)C1CC1` [Compound 100, (2S,4R)-1-((S)-2-tert-butyl-4-morpholino-4-oxobutanoyl)-N-((1R,2S)-1-(cyclopropylsulfonyl-carbamoyl)-2-vinylcyclopropyl)-4-(2-(2-(isopropyl-amino)thiazol-4-yl)-7-methoxyquinolin-4-yloxy)pyrrolidine-2-carboxamide] cannot be ordered by EC50: under 1 µM for the first, under 1 µM for the second.

`COc1ccc2c(O[C@@H]3C[C@@H](C(=O)NC4(C(=O)NS(=O)(=O)C5CC5)CCC4)N(C(=O)[C@@H](CC(=O)N4CCCCC4)C(C)(C)C)C3)cc(-c3ccccc3)nc2c1` [Compound 97, (2S,4R)-1-((S)-2-tert-butyl-4-oxo-4-(piperidin-1-yl)butanoyl)-N-(1-(cyclopropylsulfonyl-carbamoyl)cyclo-butyl)-4-(7-methoxy-2-phenylquinolin-4-yloxy)pyrrolidine-2-carboxamide] and `COc1ccc2c(O[C@@H]3C[C@@H](C(=O)NC4(C(=O)NS(=O)(=O)C5CC5)CCCC4)N(C(=O)[C@@H](CC(=O)N4CCCCC4)C(C)(C)C)C3)cc(-c3ccccc3)nc2c1` [Compound 98, (2S,4R)-1-((S)-2-tert-butyl-4-oxo-4-(piperidin-1-yl)butanoyl)-N-(1-(cyclopropylsulfonyl-carbamoyl)cyclo-pentyl)-4-(7-methoxy-2-phenylquinolin-4-yloxy)pyrrolidine-2-carboxamide] fall in the same range of EC50: 1 to 10 µM for the first, 1 to 10 µM for the second.

`C=C[C@@H]1C[C@]1(NC(=O)[C@@H]1C[C@@H](OC(=O)n2c3ccccc3c3ccccc32)CN1C(=O)[C@@H](CC(=O)N1CCCCC1)C(C)(C)C)C(=O)NS(=O)(=O)C1CC1` [Compound 99, (3R,5S)-1-((S)-2-tert-butyl-4-oxo-4-(piperidin-1-yl)butanoyl)-5-((1R,2S)-1-(cyclo-propylsulfonyl-carbamoyl)-2-vinyl-cyclopropyl-carbamoyl)pyrrolidin-3-yl 9H-carbazole-9-carboxylate] and `C=C[C@@H]1C[C@]1(NC(=O)[C@@H]1C[C@@H](Oc2nccc3cc(OC)ccc23)CN1C(=O)[C@@H](CC(=O)N1CCCCC1)C(C)(C)C)C(=O)NS(=O)(=O)C1CC1` [Compound 101, (2S,4R)-1-((S)-2-tert-butyl-4-oxo-4-(piperidin-1-yl)butanoyl)-N-((1R,2S)-1-(cyclo-propylsulfonyl-carbamoyl)-2-vinylcyclopropyl)-4-(6-methoxyisoquinolin-1-yloxy)pyrrolidine-2-carboxamide] cannot be ordered by EC50: under 1 µM for the first, under 1 µM for the second.

`C=C[C@@H]1C[C@]1(NC(=O)[C@@H]1C[C@@H](Oc2cc(-c3ccccc3)nc3cc(OC)ccc23)CN1C(=O)[C@@H](CC(=O)N1CCCCC1)CC(C)(C)C)C(=O)NS(=O)(=O)C1CC1` [Compound 104, (2S,4R)-N-((1R,2S)-1-(cyclopropyl-sulfonylcarbamoyl)-2-vinylcyclopropyl)-1-((R)-4,4-dimethyl-2-(2-oxo-2-(piperidin-1-yl)ethyl)pentanoyl)-4-(7-methoxy-2-phenylquinolin-4-yloxy)pyrrolidine-2-carboxamide] and `C=C[C@@H]1C[C@]1(NC(=O)[C@@H]1C[C@@H](Oc2cc(-c3ccccc3)nc3cc(OC)ccc23)CN1C(=O)[C@@H](CC(=O)N1CCCCC1)C(C)(C)C)C(=O)NS(=O)(=O)C1CCCC1` [Compound 105, (2S,4R)-1-((S)-2-tert-butyl-4-oxo-4-(piperidin-1-yl)butanoyl)-N-((1R,2S)-1-(cyclopentyl-sulfonylcarbamoyl)-2-vinylcyclopropyl)-4-(7-methoxy-2-phenylquinolin-4-yloxy)pyrrolidine-2-carboxamide] cannot be ordered by EC50: under 1 µM for the first, under 1 µM for the second.

`C=C[C@@H]1C[C@]1(NC(=O)[C@@H]1C[C@@H](Oc2cc(-c3ccccc3)nc3cc(OC)ccc23)CN1C(=O)[C@@H](CC(=O)N1CCCCC1)C(C)(C)C)C(=O)NS(=O)(=O)C1(C)CC1` [Compound 106, (2S,4R)-1-((S)-2-tert-butyl-4-oxo-4-(piperidin-1-yl)butanoyl)-4-(7-methoxy-2-phenylquinolin-4-yloxy)-N-((1R,2S)-1-(1-methylcyclopropyl-sulfonylcarbamoyl)-2-vinylcyclo-propyl)pyrrolidine-2-carboxamide] and `C=C[C@@H]1C[C@]1(NC(=O)[C@@H]1C[C@@H](Oc2cc(-c3ccccc3)nc3cc(OC)ccc23)CN1C(=O)[C@@H](CC(=O)N1CCCCC1)C(C)(C)C)C(=O)N(C1CC1)S(N)(=O)=O` [Compound 107, (2S,4R)-1-((S)-2-tert-butyl-4-oxo-4-(piperidin-1-yl)butanoyl)-N-((1R,2S)-1-(N-cyclopropyl-sulfamoyl-carbamoyl)-2-vinylcyclopropyl)-4-(7-methoxy-2-phenylquinolin-4-yloxy)pyrrolidine-2-carboxamide] cannot be ordered by EC50: under 1 µM for the first, under 1 µM for the second.

First: C=C[C@@H]1C[C@]1(NC(=O)[C@@H]1C[C@@H](Oc2cc(-c3ccccc3)nc3cc(OC)ccc23)CN1C(=O)[C@@H](CC(=O)N1CCCC(F)(F)C1)C(C)(C)C)C(=O)NS(=O)(=O)C1CC1 [Compound 108, (2S,4R)-1-((S)-2-tert-butyl-4-(3,3-difluoropiperidin-1-yl)-4-oxobutanoyl)-N-((1R,2S)-1-(cyclo-propylsulfonyl-carbamoyl)-2-vinylcyclopropyl)-4-(7-methoxy-2-phenylquinolin-4-yloxy)pyrrolidine-2-carboxamide]
Second: COc1ccc2c(O[C@@H]3C[C@@H](C(=O)NC(C)(C)C(=O)NS(=O)(=O)C4CC4)N(C(=O)[C@@H](CC(=O)N4CCCCC4)C(C)(C)C)C3)cc(-c3ccccc3)nc2c1 [Compound 111, (2S,4R)-1-((S)-2-tert-butyl-4-oxo-4-(piperidin-1-yl)butanoyl)-N-(1-(cyclopropane-sulfonamido)-2-methyl-1-oxopropan-2-yl)-4-(7-methoxy-2-phenylquinolin-4-yloxy)pyrrolidine-2-carboxamide]
The EC50 of the first is lower: under 1 µM for the first, 1 to 10 µM for the second.

`CC[C@H](NC(=O)[C@@H]1C[C@@H](Oc2cc(-c3ccccc3)nc3cc(OC)ccc23)CN1C(=O)[C@@H](CC(=O)N1CCCCC1)C(C)(C)C)C(=O)NS(=O)(=O)C1CC1` [Compound 109, (2S,4R)-1-((S)-2-tert-butyl-4-oxo-4-(piperidin-1-yl)butanoyl)-N-((S)-1-(cyclopropane-sulfonamido)-1-oxobutan-2-yl)-4-(7-methoxy-2-phenylquinolin-4-yloxy)pyrrolidine-2-carboxamide] and `COc1ccc2c(O[C@@H]3C[C@@H](C(=O)N[C@H](C(=O)NS(=O)(=O)C4CC4)C(C)C)N(C(=O)[C@@H](CC(=O)N4CCCCC4)C(C)(C)C)C3)cc(-c3ccccc3)nc2c1` [Compound 110, (2S,4R)-1-((S)-2-tert-butyl-4-oxo-4-(piperidin-1-yl)butanoyl)-N-((S)-1-(cyclopropane-sulfonamido)-3-methyl-1-oxobutan-2-yl)-4-(7-methoxy-2-phenylquinolin-4-yloxy)pyrrolidine-2-carboxamide] fall in the same range of EC50: 1 to 10 µM for the first, 1 to 10 µM for the second.
